Laboratory results as given in ChEMBL document CHEMBL1201862, “PubChem BioAssay data set” (2004).
Calls of active or inactive are those of the source.

Tests used:
[1] = biological target: T1, High affinity choline transporter 1 (Homo sapiens, UniProt Q9GZV3); assay: human choline transporter blockers, potency – cell-based, 5-point CRC, membrane potential dye, dose response (AID 504840); type: functional
T1 sequence (Q9GZV3 whole entry): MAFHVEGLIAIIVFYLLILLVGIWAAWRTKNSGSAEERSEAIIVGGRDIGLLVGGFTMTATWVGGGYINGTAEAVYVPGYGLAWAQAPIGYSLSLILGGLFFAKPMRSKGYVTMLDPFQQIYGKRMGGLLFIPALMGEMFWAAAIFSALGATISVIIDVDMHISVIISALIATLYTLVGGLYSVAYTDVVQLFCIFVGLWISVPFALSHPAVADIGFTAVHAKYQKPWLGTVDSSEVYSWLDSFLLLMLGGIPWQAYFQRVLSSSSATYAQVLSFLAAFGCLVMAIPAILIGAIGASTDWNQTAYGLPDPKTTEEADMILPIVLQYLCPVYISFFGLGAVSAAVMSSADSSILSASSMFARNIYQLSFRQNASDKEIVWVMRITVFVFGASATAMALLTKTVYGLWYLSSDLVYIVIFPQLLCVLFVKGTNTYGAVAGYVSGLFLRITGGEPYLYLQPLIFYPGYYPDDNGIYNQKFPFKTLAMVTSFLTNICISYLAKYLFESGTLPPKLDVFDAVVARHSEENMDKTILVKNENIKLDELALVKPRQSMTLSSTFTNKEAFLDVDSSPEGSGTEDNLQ

[2] = biological target: T2, Short transient receptor potential channel 4 (Mus musculus, UniProt Q9QUQ5); assay: block of DAMGO-driven TRPC4 calcium entry – cell-based, HEK293 TRPC4/mu-opioid, Fluo-4 calcium, dose response (AID 434942); type: functional;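 also: potency of inhibitors blocking the TRPC4 calcium response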
T2 sequence (Q9QUQ5 whole entry): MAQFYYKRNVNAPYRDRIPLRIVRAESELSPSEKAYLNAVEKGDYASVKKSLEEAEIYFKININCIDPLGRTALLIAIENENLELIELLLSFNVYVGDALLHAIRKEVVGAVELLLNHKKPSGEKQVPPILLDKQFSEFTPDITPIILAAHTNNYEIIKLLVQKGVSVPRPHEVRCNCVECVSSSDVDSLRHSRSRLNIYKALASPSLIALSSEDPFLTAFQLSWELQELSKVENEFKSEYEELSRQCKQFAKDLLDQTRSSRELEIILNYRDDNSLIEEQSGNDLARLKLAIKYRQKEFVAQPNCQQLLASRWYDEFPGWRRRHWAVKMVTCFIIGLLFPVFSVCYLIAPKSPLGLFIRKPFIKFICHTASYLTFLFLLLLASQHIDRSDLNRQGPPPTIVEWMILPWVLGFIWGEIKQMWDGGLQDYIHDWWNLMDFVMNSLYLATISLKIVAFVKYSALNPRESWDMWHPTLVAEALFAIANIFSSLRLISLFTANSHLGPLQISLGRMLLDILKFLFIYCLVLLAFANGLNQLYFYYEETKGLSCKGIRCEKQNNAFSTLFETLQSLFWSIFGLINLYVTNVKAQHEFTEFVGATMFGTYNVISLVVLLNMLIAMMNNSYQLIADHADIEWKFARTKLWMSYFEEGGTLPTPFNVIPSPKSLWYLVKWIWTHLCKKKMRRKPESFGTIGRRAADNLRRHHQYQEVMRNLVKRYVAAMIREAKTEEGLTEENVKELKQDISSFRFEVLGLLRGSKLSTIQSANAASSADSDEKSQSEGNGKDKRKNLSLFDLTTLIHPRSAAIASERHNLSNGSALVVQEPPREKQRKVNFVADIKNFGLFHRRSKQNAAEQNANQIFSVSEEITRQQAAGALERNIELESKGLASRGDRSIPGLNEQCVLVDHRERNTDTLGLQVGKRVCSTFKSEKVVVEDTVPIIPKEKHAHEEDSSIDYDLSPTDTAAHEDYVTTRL

INS1 = assay: INS-1E survival protection against cytokine death – cell-based, luminescence, retest, dose response (AID 449756); type: functional; conditions: Rattus norvegicus;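 also: cell death triggered by IL-1 beta plus TNF-alpha plus IFN-gamma mixture; protective hits raise ATP signal compared with cytokine alone wells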
Escherichia coli = assay: microbe, parasite or virus in culture
[3] = biological target: Peroxisome proliferator-activated receptor gamma/Nuclear receptor coactivator 2 (Homo sapiens, UniProt P37231); assay: (§1) TR-FRET dose response biochemical High Throughput Screening assay for agonists of the steroid receptor coactivator 2 (SRC-2) recruitment by the peroxisome proliferator-activated receptor gamma (PPAR gamma): non-selective agonists. [Related pubchem assays: 1297, 1032 ]; type: functional
Chain of Peroxisome proliferator-activated receptor gamma/Nuclear receptor coactivator 2 (P37231 whole entry): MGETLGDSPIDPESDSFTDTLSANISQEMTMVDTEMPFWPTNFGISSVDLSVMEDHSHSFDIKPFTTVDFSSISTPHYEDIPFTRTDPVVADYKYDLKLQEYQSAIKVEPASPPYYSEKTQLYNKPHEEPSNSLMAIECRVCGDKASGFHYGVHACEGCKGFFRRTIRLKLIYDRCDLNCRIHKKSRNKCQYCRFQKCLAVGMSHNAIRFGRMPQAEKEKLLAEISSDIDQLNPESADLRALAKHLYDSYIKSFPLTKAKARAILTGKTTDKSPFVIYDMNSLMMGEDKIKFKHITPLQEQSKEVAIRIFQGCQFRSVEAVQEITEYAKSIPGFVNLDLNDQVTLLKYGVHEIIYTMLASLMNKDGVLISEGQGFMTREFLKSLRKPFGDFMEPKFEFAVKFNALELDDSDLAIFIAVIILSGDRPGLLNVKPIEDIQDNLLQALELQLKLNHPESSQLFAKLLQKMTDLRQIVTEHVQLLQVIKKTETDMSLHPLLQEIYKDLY
Chain of Peroxisome proliferator-activated receptor gamma/Nuclear receptor coactivator 2 (Q15596 whole entry, further chain): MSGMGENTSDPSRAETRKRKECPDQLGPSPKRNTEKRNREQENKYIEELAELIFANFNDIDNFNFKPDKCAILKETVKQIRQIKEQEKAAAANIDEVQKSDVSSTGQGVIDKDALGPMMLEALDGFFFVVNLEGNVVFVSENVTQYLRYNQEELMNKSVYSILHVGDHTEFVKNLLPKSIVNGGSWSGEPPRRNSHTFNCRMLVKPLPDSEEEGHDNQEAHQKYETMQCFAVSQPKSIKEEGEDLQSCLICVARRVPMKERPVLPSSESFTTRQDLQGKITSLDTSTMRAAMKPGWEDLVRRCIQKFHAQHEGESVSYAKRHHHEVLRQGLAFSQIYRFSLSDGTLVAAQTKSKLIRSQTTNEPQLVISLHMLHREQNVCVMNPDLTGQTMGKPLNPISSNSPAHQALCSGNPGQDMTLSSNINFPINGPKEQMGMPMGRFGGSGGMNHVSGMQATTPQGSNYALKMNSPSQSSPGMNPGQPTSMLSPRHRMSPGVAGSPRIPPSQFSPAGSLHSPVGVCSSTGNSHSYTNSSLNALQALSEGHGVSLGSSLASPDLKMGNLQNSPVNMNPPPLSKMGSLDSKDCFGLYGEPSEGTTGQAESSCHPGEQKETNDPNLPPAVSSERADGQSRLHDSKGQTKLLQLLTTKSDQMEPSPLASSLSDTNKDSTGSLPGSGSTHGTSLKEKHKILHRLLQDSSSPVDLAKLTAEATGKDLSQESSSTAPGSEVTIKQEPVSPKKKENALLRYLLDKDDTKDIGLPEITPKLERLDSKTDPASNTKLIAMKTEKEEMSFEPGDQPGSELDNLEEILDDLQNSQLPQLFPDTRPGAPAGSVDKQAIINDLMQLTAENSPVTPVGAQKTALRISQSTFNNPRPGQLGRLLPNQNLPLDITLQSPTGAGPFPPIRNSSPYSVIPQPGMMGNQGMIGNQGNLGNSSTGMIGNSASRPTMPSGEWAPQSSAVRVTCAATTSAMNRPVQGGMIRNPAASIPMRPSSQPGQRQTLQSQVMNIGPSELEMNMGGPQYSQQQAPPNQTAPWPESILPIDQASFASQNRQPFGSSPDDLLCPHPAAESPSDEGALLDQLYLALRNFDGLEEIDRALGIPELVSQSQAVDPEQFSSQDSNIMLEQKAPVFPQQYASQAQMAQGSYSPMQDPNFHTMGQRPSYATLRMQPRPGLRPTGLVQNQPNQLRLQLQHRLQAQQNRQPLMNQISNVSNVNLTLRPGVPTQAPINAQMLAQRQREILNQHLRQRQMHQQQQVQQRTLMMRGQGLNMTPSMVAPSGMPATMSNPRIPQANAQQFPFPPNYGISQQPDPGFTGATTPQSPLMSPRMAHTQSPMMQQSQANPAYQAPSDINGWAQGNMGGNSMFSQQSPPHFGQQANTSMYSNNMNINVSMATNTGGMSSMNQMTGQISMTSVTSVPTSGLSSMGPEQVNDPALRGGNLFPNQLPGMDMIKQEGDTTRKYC

[4] = biological target: Peroxisome proliferator-activated receptor gamma/Nuclear receptor coactivator 3 (Homo sapiens, UniProt P37231); assay: as §1, with “3 (SRC-3)” for “2 (SRC-2)”, “1301 (Confirmation screen.), 1048 (Primary screen.)]” for “1297, 1032 ]”; type: functional
Chain of Peroxisome proliferator-activated receptor gamma/Nuclear receptor coactivator 3 (P37231 whole entry): as the sequence (P37231 whole entry) above
Chain of Peroxisome proliferator-activated receptor gamma/Nuclear receptor coactivator 3 (Q9Y6Q9 whole entry, further chain): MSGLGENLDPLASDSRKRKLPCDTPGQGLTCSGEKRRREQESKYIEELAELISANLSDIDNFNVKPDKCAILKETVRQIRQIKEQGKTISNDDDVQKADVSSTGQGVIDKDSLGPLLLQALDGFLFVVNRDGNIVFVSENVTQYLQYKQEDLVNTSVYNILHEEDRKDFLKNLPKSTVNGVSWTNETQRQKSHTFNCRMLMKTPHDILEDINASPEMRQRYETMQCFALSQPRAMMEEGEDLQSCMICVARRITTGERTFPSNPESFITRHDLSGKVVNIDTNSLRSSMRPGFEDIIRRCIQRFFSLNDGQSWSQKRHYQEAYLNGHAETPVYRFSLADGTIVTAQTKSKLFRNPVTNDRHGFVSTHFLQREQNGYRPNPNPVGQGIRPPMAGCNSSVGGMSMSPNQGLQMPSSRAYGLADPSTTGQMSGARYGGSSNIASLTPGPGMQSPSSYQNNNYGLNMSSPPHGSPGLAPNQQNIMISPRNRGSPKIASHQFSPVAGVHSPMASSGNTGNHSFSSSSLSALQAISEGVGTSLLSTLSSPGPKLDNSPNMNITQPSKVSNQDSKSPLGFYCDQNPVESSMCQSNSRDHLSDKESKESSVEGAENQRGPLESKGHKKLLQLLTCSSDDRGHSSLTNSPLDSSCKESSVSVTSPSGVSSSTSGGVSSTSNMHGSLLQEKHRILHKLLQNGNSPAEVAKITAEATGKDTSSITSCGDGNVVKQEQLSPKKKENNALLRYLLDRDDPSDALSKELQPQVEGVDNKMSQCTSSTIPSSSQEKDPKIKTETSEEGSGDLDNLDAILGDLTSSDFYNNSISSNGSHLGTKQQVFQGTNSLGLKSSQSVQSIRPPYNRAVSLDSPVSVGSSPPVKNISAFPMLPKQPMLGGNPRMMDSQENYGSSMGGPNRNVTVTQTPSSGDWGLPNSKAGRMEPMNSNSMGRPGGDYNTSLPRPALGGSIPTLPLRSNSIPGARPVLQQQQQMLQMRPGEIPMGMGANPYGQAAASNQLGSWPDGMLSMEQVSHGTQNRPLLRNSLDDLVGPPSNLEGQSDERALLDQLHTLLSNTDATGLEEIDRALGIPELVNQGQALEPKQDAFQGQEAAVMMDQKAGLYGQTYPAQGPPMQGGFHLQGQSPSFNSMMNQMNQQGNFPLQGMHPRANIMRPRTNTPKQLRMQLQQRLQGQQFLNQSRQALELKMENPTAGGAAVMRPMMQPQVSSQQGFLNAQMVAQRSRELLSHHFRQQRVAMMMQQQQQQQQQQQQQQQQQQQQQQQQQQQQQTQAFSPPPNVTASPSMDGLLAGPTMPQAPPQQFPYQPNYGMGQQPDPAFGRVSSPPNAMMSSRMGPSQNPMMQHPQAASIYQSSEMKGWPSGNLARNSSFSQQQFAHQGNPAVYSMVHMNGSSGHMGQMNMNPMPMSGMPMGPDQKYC

[5] = biological target: Peroxisome proliferator-activated receptor gamma/Nuclear receptor coactivator 1 (Homo sapiens, UniProt P37231); assay: as §1, with “1 (SRC-1)” for “2 (SRC-2)”, “assays (depositor defined):AID1300, AID1808, AID504735, AID631]” for “assays: 1297, 1032 ]”; type: protein assay
[6] = biological target: Alkaline phosphatase, placental type (Homo sapiens, UniProt P05187); assay: human placental alkaline phosphatase inhibition – biochemical, luminescence, confirmation (AID 1512); type: functional
Chain of Alkaline phosphatase, placental type (P05187 whole entry): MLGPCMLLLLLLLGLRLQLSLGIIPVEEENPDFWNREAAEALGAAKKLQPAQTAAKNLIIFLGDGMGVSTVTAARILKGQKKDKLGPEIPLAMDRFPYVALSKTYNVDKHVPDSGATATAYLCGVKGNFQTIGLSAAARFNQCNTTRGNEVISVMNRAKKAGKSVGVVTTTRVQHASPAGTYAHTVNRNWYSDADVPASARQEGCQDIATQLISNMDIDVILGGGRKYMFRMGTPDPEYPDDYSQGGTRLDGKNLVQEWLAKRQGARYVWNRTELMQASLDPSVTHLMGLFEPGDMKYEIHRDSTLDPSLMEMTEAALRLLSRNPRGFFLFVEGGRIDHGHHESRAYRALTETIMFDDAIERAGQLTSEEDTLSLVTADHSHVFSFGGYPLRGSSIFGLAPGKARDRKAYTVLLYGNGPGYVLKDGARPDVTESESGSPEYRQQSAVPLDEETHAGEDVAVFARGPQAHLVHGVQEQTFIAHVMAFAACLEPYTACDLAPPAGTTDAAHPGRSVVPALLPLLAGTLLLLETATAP

[7] = biological target: T3, Alkaline phosphatase, tissue-nonspecific isozyme (Homo sapiens, UniProt P05186); assay: potency against alkaline phosphatase TNAP – biochemical, luminescent, dose response, SAR follow-up (AID 1056)
T3 sequence (P05186 whole entry): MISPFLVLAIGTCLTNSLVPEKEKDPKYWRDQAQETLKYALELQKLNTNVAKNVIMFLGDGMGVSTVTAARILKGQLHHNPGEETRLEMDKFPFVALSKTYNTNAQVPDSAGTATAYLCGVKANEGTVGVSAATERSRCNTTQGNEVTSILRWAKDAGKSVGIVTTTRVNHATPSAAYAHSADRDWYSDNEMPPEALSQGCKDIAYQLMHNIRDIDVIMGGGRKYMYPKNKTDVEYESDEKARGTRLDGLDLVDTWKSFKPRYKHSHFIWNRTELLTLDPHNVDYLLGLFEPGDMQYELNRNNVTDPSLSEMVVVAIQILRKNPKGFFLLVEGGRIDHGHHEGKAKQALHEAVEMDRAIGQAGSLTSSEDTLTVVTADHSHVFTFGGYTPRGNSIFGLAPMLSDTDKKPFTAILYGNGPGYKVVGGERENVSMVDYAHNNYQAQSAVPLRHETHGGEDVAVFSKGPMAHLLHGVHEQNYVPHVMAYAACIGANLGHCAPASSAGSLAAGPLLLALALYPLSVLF

Vero = assay: cells; type: functional, cell-based; conditions: Chlorocebus sabaeus
[8] = A cytotoxicity screen of small molecule inhibitors of the PhoP region in Salmonella typhi identified in the primary screen. [Related pubchem assays: 1850, 1864, 1985 ]; type: functional
[9] = biological target: T4, Carboxy-terminal domain RNA polymerase II polypeptide A small phosphatase 1 (Homo sapiens, UniProt Q9GZU7); assay: CTDSP1 inhibitors, concentration-response, biochemical, absorbance readout, ultra-high-throughput screen actives (AID 540297); type: functional
T4 sequence (Q9GZU7 whole entry): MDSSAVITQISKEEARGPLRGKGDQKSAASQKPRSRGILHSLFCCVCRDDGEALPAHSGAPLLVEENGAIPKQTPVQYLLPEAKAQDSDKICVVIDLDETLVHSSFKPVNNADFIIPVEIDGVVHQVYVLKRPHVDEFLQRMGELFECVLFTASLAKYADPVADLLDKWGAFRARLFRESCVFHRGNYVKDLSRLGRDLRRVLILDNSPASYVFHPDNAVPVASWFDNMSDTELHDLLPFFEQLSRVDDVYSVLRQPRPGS

With `CC(=O)Nc1ccc(Nc2cc(C)c3ccccc3n2)cc1` the IC50 [1] was 11.2 µM (active).

With `Cc1ccccc1OCCn1c(C)nc2ccccc21` the EC50 [2] was 1.19 µM (active) and the AC50 (INS1) was 8.1 µM (active).

With `Cc1nc2ccccc2c(=O)n1CCCO` the AC50 (Escherichia coli) was 27.2 µM (active).

With `CC(C)COC(=O)CNc1nnc(S)nc1O` the EC50 [3] was 3.42 µM (active), the EC50 [4] was 37.9 µM (not active) and the EC50 [5] was 2.86 µM (active).

For `Cc1cc(C)c2c(O)nc(SCC(=O)c3ccc(O)c(O)c3)nc2n1`, the IC50 [6] was 8.77 µM (active) and the IC50 [7] was > 100 µM (inactive).

For `CC(=O)Nc1cc[n+](CC(=O)c2cccc([N+](=O)[O-])c2)cc1`, the IC50 (Vero) was 6.55 µM (active).

With `CCc1ccccc1N=C(S)N(Cc1cccc(C)c1)c1cccnc1` the EC50 [8] was > 50 µM (active).

For `COc1cc(S(=O)(=O)Nc2cc(C)cc(C)c2)ccc1F`, the AC50 (Escherichia coli) was 64.9 µM (active).

For `COc1ccc(CC(=O)NNC(=O)COc2ccc3ccccc3c2)cc1`, the EC50 [3] was 1.93 µM (active), the EC50 [4] was 3.65 µM (active) and the IC50 [9] was 9.26 µM (active). The EC50 [5] was 2 µM (active).

For `Nc1nnc(-c2cc3ccccc3oc2=O)s1`, the IC50 [6] was > 100 µM (inactive) and the IC50 [7] was > 100 µM (inactive).

With `CC(C)(C)c1ccc(C(=O)n2cnc3ccccc32)cc1` the AC50 (Escherichia coli) was 33.1 µM (active).
